Results taken from patent publication US4547507A, “Benzothiopyranopyridinones” (Roussel Uclaf, priority 1982, dated 1985).
pIC50: −log10 of the molar value. Where a name gives a salt, the structure may show the parent alone.

Tests used:
[1] = target: rat cortical muscarinic receptor; test: Test D: [3H]Quinuclidinyl benzylate displacement from rat cortical muscarinic receptor binding sites; conditions: rat cortical membranes, [3H]quinuclidinyl benzylate 0.31 nM, 25° C., 60 minutes; read-out: Test D MUSC IC50
Experimental: Test D--[^3 H]Quinuclidinyl benzylate displacement from rat cortical muscarinic receptor binding sites
(a) Radioligand--DL-[3-^3 H]Quinuclidinyl benzylate (Amersham International, TRK 506, 12 Ci/mmol) was used as a 1 μCi/1 μl solution and this stock solution was diluted 1/13333 in assay buffer and 0.1 ml volumes of this were added to 2 ml binding assay =0.31 nM and =0.0075 μCi/binding assay
(§1) (b) Membrane preparation--As for Test B
(c) Non-specific binding--Non-specific binding was accounted for by the inclusion of 100 μM oxotremorine sesquifumarate in blank binding assays and this required a stock solution of 2 mM in distilled H2 O.
(d) Displacement compounds--As for Test B
(e) Assay protocol--As for Test B with the exception that the binding assays were incubated at 25° C. for 60 minutes.

rat cortical α2 receptor = test: Test C: [3H]Dihydroergocryptine displacement from rat cortical α2 receptor binding sites; conditions: for pIC50: rat cortical membranes, [3H]dihydroergocryptine 0.45 nM, 25° C., 45 minutes in the dark, approximately 80% of binding is α2
Experimental: Test C--[^3 H]Dihydroergocryptine displacement from rat cortical α2 *receptor binding sites
(a) Radioligand--[9,10(n)-^3 H]9,10-Dihydroergocryptine (Amersham International, TRK 555, 17.5 Ci/mmole) was used as a 1 μCi/1 μl solution and this stock solution was diluted 1/6250 in assay buffer and 0.1 ml volumes of this were added to 2 ml binding assays. =0.45 nM and =0.016 μCi/binding assay
*In cortical membranes, [^3 H]dihydroergocryptine binds to both α1 and α2 receptor binding sites under the conditions of assay described here, approximately 80% of the binding is associated with α2 receptors.
as §1
(c) Non-specific binding--As for Test B
(d) Displacing compounds--As for Test B
(e) Assay protocol--As for Test B with the exception that the binding assays were incubated at 25° C. for 45 minutes in the dark.

[2] = target: rat striatal dopamine receptor (Rattus norvegicus, UniProt P61169); test: Test A: [3H]Spiroperidol displacement from rat striatal dopamine receptor binding sites; conditions: rat striatal membranes, [3H]spiroperidol 0.19 nM, 37° C., 10 minutes, pH 7.6; read-out: Test A receptor DA IC50
Experimental: Test A--[^3 H Spiroperidol displacement from rat striatal dopamine receptor binding sites
(a) Radioligand--[phenyl-4-(n)-^3 H]Spiroperido (Amersham International, TRK 570, 21 Ci/mmol was used as a 1 μCi/1 μl solution in ethanol and this solution was diluted to 250 μCi in 1 ml of ethanol to produce a stock solution. This stock solution was diluted 3.2/10,000 in assay buffer and 0.1 ml volumes of this were added to 2 ml binding assays =0.19 nM [^3 H]spiroperidol and =[…]
(b) Assay buffer--The assay buffer was a modified 50 mM Tris HCl buffer with a pH of 7.6 containing the following additions: NaCl-120 mM, KCl-5 mM, MgCl2 -1 mM, CaCl2 -2 mM, Pargyline-10 μM and 1-Ascorbic Acid-0.1%
(c) Membrane preparation--The striata were dissected from male CFHB rats and homogenized in 20 volumes of ice cold 0.32M sucrose with a Teflon/glass homogenizer and the homogenate was centrifuged at 1000 g for 10 minutes. The resulting supernatant was recentrifuged at 30,000 g for 30 minutes and the supernatant was discarded and the pellet was resuspended by homogenization in 30 volumes of ice cold assay buffer.
(d) Non-specific binding--Non-specific binding was accounted for by the inclusion of 1 μM(+)butaclamol in blank binding assays which required a stock solution of 20 μM in distilled water.
(e) Displacing compounds--Solutions were prepared at 20x final assay concentration in distilled water.
(f) Binding assay protocol--1.3 ml assay buffer, 0.5 ml membrane suspension, 0.1 ml distilled H2 O or drug solution and 0.1 ml [^3 H]spiroperidol dilution Binding assays were made up in ice with the [^3 H]spiroperidol being added last and incubated at 37° C. for 10 minutes. The bound ligand was separated by filtration through Whatman GF/C filters under vacuum followed by 2×10 ml rinses of ice cold assay buffer. The filters were dried at 80° C. and counted in 5 ml volumes of ECONOFLUOR (NEN) scintillation cocktail. All binding assays, controls, blanks and each of four displacer concentration were run in triplicate. IC50 values (Test A) were obtained graphically from log dose versus percent inhibition of specific binding plots.

rat cortical α1 receptor = test: Test B: [3H]Prazosin displacement from rat cortical α1 receptor binding sites; conditions: rat cerebral cortex membranes, [3H]prazosin 0.1 nM, 25° C., 30 minutes, pH 7.5
Experimental: Test B--[^3 H]Pyrazosin displacement from rat cortical α1 receptor binding sites (a) Radioligand--[^3 H]Prazosin (Amersham International, TRK 647, 28 Ci/mmole) was used as a 1 μCi/1 μl solution and this stock solution was diluted 1/18,000 in assay buffer and 0.1 ml volumes of this were added to 2 ml binding assay. =0.1 nM [^3 H]Prazosin and =0.0056 μCi/binding assay (b) Membrane preparation--The cerebral cortices were dissected from male CFHB rats and homogenized in 20 volumes of ice cold 0.32M sucrose using a Teflon/glass homogenizer and the homogenate was centrifuged at 1000 g for 10 minutes. The resulting pellet was discarded and the supernatant was recentrifuged at 30,000 g for 30 minutes. The supernatant was discarded and the pellet was resuspended by homogenization in 50 volumes of 50 mM pH 7.5 Tris HCl buffer (assay buffer). (c) Non-specific binding--Non-specific binding was accounted for by the inclusion of 100 μM 1-noradrenaline in blank binding assays which required a stock solution of 2 mM 1-noradrenaline made up fresh daily in 0.1% 1-ascorbic acid. (d) Displacing compounds--Solutions were prepared at 20x final assay concentration in distilled water. (e) Binding assay protocol--1.3 ml assay buffer, 0.5 ml membrane suspension, 0.1 ml distilled H2 O or drug solution and 0.1 ml [^3 H]pyrazosin dilution Binding assays were made up in ice with the [^3 H]pyrazosin being added last and incubated at 25° C. for 30 minutes. The bound ligand was separated by filtration through Whatman GF/C glass fibre filters under vacuum followed by 2×10 ml rinses of ice cold assay buffer. The filters were dried at 80° C. and counted in 5 ml volumes of ECONOFLUOR (NEN) scintillation cocktail. All binding assays, controls, blanks and each of four displacer concentrations were run in triplicate. IC50 values (Test B) were obtained graphically from log dose versus percent inhibition of specific binding plots.

Chain of rat striatal dopamine receptor (P61169 whole entry): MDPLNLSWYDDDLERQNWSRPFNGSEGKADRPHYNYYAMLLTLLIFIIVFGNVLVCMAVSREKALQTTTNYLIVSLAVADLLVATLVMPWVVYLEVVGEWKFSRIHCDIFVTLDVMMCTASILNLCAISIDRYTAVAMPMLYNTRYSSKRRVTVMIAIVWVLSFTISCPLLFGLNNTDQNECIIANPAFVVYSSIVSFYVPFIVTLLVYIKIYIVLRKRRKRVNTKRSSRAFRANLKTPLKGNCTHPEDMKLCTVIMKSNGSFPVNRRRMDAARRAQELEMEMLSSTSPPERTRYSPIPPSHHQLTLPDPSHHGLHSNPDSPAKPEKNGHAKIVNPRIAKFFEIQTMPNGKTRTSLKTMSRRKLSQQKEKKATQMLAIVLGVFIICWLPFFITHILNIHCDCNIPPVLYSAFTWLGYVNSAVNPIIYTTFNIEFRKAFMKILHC

| SMILES | pIC50 [1] | pIC50 (rat cortical α2 receptor) | pIC50 [2] | pIC50 (rat cortical α1 receptor) | share of the radioligand binding associated with α2 receptors (rat cortical α2 receptor; cortical membranes, under the conditions of assay) |
| --- | --- | --- | --- | --- | --- |
| O=c1c2c(sc3ccccc13)CCN(CCO)C2 [Example 35] | 4.15 | 5.48 | 5.00 | 5.00 |  |
| O=c1c2c(sc3ccccc13)CCN(CC1=CCCCC1)C2 [Example 29] | < 4.00 | 6.82 | 6.77 | 5.58 |  |
| CCCCCCN1CCc2sc3ccccc3c(=O)c2C1 [Example 18, 2-n-hexyl-1,2,3,4-tetrahydro-10H-(1)-benzothiopyrano[3,2-c]pyridin-10-one hydrochloride] | 4.80 | 7.10 | 6.89 | 6.40 |  |
| O=c1c2c(sc3ccccc13)CCN(CCC1OCCCO1)C2 [Example 31] | 4.13 | 6.19 | 6.25 | 5.47 |  |
| [3H]C1C(C(=O)NC2(C(C)C)OC3(O)C4CCCN4C(=O)C(CC(C)C)N3C2=O)CN(C)C2Cc3c[nH]c4cccc(c34)C12[3H] (stereo not drawn) [[^3 H]dihydroergocryptine, [9,10(n)-^3 H]9,10-Dihydroergocryptine, reference compound] |  |  |  |  | approximately 80% |
| O=c1c2c(sc3ccccc13)CCN(CC1CCCCC1)C2 [Example 20, 2-cyclohexylmethyl-1,2,3,4-tetrahydro-10H-(1)-benzothiopyrano[3,2-c]pyridin-10-one hydrochloride] | < 4.00 | 6.64 | 8.00 | 5.57 |  |
| COc1ccc2sc3c(c(=O)c2c1)CNCC3 [Example 4, 1,2,3,4-tetrahydro-8-methoxy-10H-(1)-benzothiopyrano[3,2-c]pyridin-10-one hydrochloride] | 4.24 | 5.54 | < 5.00 | 5.11 |  |
| COc1ccc2sc3c(c(=O)c2c1)CN(CC1CCCCC1)CC3 [Example 38, 2-cyclohexylmethyl-8-methoxy-1,2,3,4-tetrahydro-10H-(1)-benzothiopyrano[3,2-c]pyridin-10-one hydrochloride] | 4.04 | 5.66 | 6.12 | < 5.00 |  |
| CCN1CCc2sc3ccccc3c(=O)c2C1 [Example 13, 2-ethyl-1,2,3,4-tetrahydro-10H-(1)-benzothiopyrano[3,2-c]pyridin-10-one hydrochloride] | 4.35 | 6.54 | 6.00 | 5.82 |  |
| Cc1ccc2sc3c(c(=O)c2c1)CNCC3 [Example 2, 1,2,3,4-tetrahydro-8-methyl-10H-(1)benzothiopyrano[3,2-c]pyridin-10-one hydrochloride] | 4.34 | 5.48 | < 5.00 | < 5.00 |  |
| N#CCCN1CCc2sc3ccccc3c(=O)c2C1 [Example 22, 2-(2-cyanoethyl)-1,2,3,4-tetrahydro-10H-(1)-benzothiopyrano[3,2-c]pyridin-10-one hydrochloride] | < 4.00 | < 5.00 | < 5.00 | < 5.00 |  |
| O=c1c2c(sc3c1ccc1ccccc13)CCNC2 [Example 8, 1,2,3,4-tetrahydro-12H-naphtho[1',2':6,5]thiopyrano[3,2-c]pyridin-12-one hydrochloride] | 5.09 | 6.00 | 6.17 | 6.13 |  |
| O=c1c2c(sc3ccccc13)CCN(CCc1ccccc1)C2 [Example 32] | 4.33 | 6.68 | 6.64 | 6.77 |  |
| CCCCCN1CCc2sc3ccccc3c(=O)c2C1 [Example 17, 1,2,3,4-tetrahydro-2-n-pentyl-10H-(1)-benzothiopyrano[3,2-c]pyridin-10-one hydrochloride] | 4.40 | 7.15 | 7.15 | 6.51 |  |
| O=c1c2c(sc3ccccc13)CCN(Cc1ccccc1)C2 [Example 6, 2-benzyl-1,2,3,4-tetrahydro-10H-(1)-benzothiopyrano[3,2-c]pyridin-10-one hydrochloride] | < 4.00 | 6.30 | 6.17 | 5.40 |  |
| NC(=O)CCN1CCc2sc3ccccc3c(=O)c2C1 [Example 23, 2-(2-carbamoylethyl)-1,2,3,4-tetrahydro-10H-(1)-benzothiopyrano[3,2-c]pyridin-10-one hydrochloride] | < 4.00 | 5.52 | 5.38 | 5.23 |  |
| CCCCN1CCc2sc3ccccc3c(=O)c2C1 [Example 14, 2-n-butyl-1,2,3,4-tetrahydro-10H-(1)-benzothiopyrano[3,2-c]pyridin-10-one hydrochloride] | 4.12 | 6.96 | 7.10 | 6.05 |  |
| CCCN1CCc2sc3ccccc3c(=O)c2C1 [Example 11, 1,2,3,4-tetrahydro-2-n-propyl-10H-(1)-benzothiopyrano[3,2-c]pyridin-10-one hydrochloride] | < 4.00 | 6.82 | 6.31 | 5.89 |  |
| O=c1c2c(sc3ccccc13)CCN(CC1CCC1)C2 [Example 26, 2-cyclobutylmethyl-1,2,3,4-tetrahydro-10H-(1)-benzothiopyrano[3,2-c]pyridin-10-one] | 4.30 | 7.30 | 7.22 | 6.16 |  |
| COc1ccc2c(=O)c3c(sc2c1)CCNC3 [Example 3, 1,2,3,4-tetrahydro-7-methoxy-10H-(1)-benzothiopyrano[3,2-c]pyridin-10-one hydrochloride] | 4.57 | 5.37 | < 5.00 | < 5.00 |  |
| O=c1c2c(sc3ccccc13)CCN(CCCn1c(=O)[nH]c3ccccc31)C2 [Example 36] | 4.35 | 6.82 | 7.52 | 6.72 |  |
